This note sets out measurements from patent publication US20250114460A1, “NOVEL PLK1 DEGRADATION INDUCING COMPOUND” (UPPTHERA, INC., priority 2021, published 2025).

Type in all cases: cell-based
The subject of one experiment is NCI-H526 cell line. Put plainly: Cell viability assay for H526 cell (EZ-Cytox). The following applies: Homo sapiens, NCI-H526, 120 h; H526 cells, 5 days, 3000 nM to 0.46 nM. An outline of the steps: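 NCI-H526 cells were exposed to compound in CO2 incubator culture for 5 days. Viability was read by EZ-Cytox absorbance at 450 nm after 3 min shaking, giving IC50 values.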

The next experiment has as its system MRC-5 cell line. In words: Cell viability assay for MRC-5 cell line (EZ-Cytox). The following applies: Homo sapiens, MRC5, 120 h; MRC-5 normal cell line, 5 days, 10000 nM to 1.52 nM; N.D. = no cytotoxicity until 10 μM; read-out: Activity: IC50 value of Exemplary Compound to MRC-5 cell line. The protocol: 4. Cell Viability Assay for MRC-5 Cell Line
(1) Culture of MRC-5 Cell Line
Passage of cultured cells was maintained within P15.
(2) Treatment of Compounds of the Present Invention
Then, it was cultured in 37° C.
(3) Cytotoxicity Experiment
CO2 incubator for 4 hours.

Another experiment addresses T1, PLK1 (Homo sapiens, UniProt P53350).
T1 construct: endogenous in cells; host or cells: HeLa LgBit (Plk1-HiBit KI): HeLa stably expressing LgBit, with a CRISPR/Cas9 knock-in of HiBit at the endogenous PLK1 locus
In words: Luciferase assay for PLK1 in HeLa LgBit (Plk1-HiBit KI) cell line. The following applies: 300 nM compound, luminescence after 9 hours. An outline of the steps:
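HeLa cells stably expressing LgBit, with HiBit knocked in at the C-terminus of endogenous Plk1, released from a 24 h 2 mM thymidine block and grown 18 h. Endurazine added, then compound at 300 nM; luminescence tracked in real time, expressed as ratio to DMSO.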
Background: HiBiT is a short tag that completes a luciferase, so light tracks the accessible tagged protein.

SMILES strings stand for the structures.

T1 sequence (P53350 whole entry): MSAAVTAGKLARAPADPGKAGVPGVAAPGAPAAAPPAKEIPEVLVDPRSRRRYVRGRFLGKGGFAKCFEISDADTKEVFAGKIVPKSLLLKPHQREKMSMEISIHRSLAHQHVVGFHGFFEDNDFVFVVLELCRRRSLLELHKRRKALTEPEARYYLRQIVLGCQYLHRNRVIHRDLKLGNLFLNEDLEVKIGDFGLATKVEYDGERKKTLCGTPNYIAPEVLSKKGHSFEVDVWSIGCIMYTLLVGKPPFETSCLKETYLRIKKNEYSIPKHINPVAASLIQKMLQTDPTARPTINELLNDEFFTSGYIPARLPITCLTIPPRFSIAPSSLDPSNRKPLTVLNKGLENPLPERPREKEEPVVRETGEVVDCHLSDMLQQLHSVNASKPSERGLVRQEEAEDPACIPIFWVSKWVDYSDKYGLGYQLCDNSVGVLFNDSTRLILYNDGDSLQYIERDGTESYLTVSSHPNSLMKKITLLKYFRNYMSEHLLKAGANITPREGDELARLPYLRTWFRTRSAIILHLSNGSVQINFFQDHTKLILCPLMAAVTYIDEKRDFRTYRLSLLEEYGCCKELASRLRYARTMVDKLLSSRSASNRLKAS

Consider `COc1cc(C(=O)NC2CCN(C(=O)CCN3CCN(c4cccc5c4C(=O)N(C4CCC(=O)NC4=O)C5=O)CC3)CC2)c(Cl)cc1Nc1ncc2c(n1)N(C1CCCC1)CC(F)(F)C(=O)N2C` (stereo not drawn) [Compound 78, 2-chloro-4-((9-cyclopentyl-7,7-difluoro-5-methyl-6-oxo-6,7,8,9-tetrahydro-5H-pyrimido[4,5-b][1,4]diazepin-2-yl)amino)-N-(1-(3-(4-(2-(2,6-dioxopiperidin-3-yl)-1,3-dioxoisoindolin-4-yl)piperazin-1-yl)propanoyl)piperidin-4-yl)-5-methoxybenzamide], for which the figures for the IC50 in the experiment with NCI-H526 cell line and in the experiment on MRC-5 cell line were < 0.1 µM and > 10 µM, respectively. Moreover, the “Activity: ratio of the luminescense value of each Exemplary Compound treatment group to DMSO treatment group” value (shortened to “Activity: ratio”) at PLK1 is “+++ (+++: <0.3)”.
For the molecule `COc1cc(C(=O)NC2CCN(CCC3CCCN(c4cccc5c4C(=O)N(C4CCC(=O)NC4=O)C5=O)C3)CC2)ccc1Nc1ncc2c(n1)N(C1CCCC1)CC(F)(F)C(=O)N2C` (stereo not drawn) [Compound 55, 4-((9-cyclopentyl-7,7-difluoro-5-methyl-6-oxo-6,7,8,9-tetrahydro-5H-pyrimido[4,5-b][1,4]diazepin-2-yl)amino)-N-(1-(2-(1-(2-(2,6-dioxopiperidin-3-yl)-1,3-dioxoisoindolin-4-yl)piperidin-3-yl)ethyl)piperidin-4-yl)-3-methoxybenzamide], the figures for the IC50 in the experiment on NCI-H526 cell line and in the experiment with MRC-5 cell line were < 0.1 µM and 3.81 µM, respectively. In addition, the “Activity: ratio” value at PLK1 is “++ (++<0.6)”.
`COc1cc(C(=O)NC2CCC(N(C)C3CCN(c4cccc5c4C(=O)N(C4CCC(=O)NC4=O)C5=O)CC3)C2)ccc1Nc1ncc2c(n1)N(C(C)C)CC(F)(F)C(=O)N2C` (stereo not drawn) [Compound 165, 4-((7,7-difluoro-9-isopropyl-5-methyl-6-oxo-6,7,8,9-tetrahydro-5H-pyrimido[4,5-b][1,4]diazepin-2-yl)amino)-N-(3-((1-(2-(2,6-dioxopiperidin-3-yl)-1,3-dioxoisoindolin-4-yl)piperidin-4-yl)(methyl)amino)cyclopentyl)-3-methoxybenzamide]: the values for the half-inhibitory concentration (IC50) in the experiment with NCI-H526 cell line and in the experiment on MRC-5 cell line were < 0.03 µM and > 10 µM, respectively. The “Activity: ratio” value at PLK1 is on record as “++ (++<0.6)”.
Consider `COc1cc(C(=O)NC2CCN(C(=O)CCC3CCN(c4cccc5c4C(=O)N(C4CCC(=O)NC4=O)C5=O)CC3)CC2)ccc1Nc1ncc2c(n1)N(C1CCCC1)CC(F)(F)C(=O)N2C` (stereo not drawn) [Compound 62, 4-((9-cyclopentyl-7,7-difluoro-5-methyl-6-oxo-6,7,8,9-tetrahydro-5H-pyrimido[4,5-b][1,4]diazepin-2-yl)amino)-N-(1-(3-(1-(2-(2,6-dioxopiperidin-3-yl)-1,3-dioxoisoindolin-4-yl)piperidin-4-yl)propanoyl)piperidin-4-yl)-3-methoxybenzamide], for which the 50% inhibitory concentration (IC50) (usually the point on the concentration scale where inhibition reaches its midpoint) in the experiment on NCI-H526 cell line is < 0.1 µM; with MRC-5 cell line, > 10 µM. At PLK1, the “Activity: ratio” value is reported as “+++ (+++: <0.3)”.
The corresponding values for `COc1cc(C(=O)NN2CCC(N3CC4(CCN(c5cc6c(cc5F)C(=O)N(C5CCC(=O)NC5=O)C6=O)CC4)C3)CC2)c(F)cc1Nc1ncc2c(n1)N(C(C)C)CC(F)(F)C(=O)N2C` (stereo not drawn) [Compound 217, 4-((7,7-difluoro-9-isopropyl-5-methyl-6-oxo-6,7,8,9-tetrahydro-5H-pyrimido[4,5-b][1,4]diazepin-2-yl)amino)-N-(4-(7-(2-(2,6-dioxopiperidin-3-yl)-6-fluoro-1,3-dioxoisoindolin-5-yl)-2,7-diazaspiro[3.5]nonan-2-yl)piperidin-1-yl)-2-fluoro-5-methoxybenzamide] are < 0.4 µM, 16.4 µM and “++ (++<0.6)”.
